# Measurements reported in article PMC9437101, “Curcumin-based-fluorescent probes targeting ALDH1A3 as a promising tool for glioblastoma precision surgery and early diagnosis” (Communications Biology, 2022).
# Values joined by “and” are separate entries in the source; they are usually repeats but may differ in a detail not shown here. Equal values may be shown once.
# Assays:
# HEK293T cells = test: Fluorescent microscopy of probe in cells; format: cell-based, human; settings: 10 µM, 2 h (Fig. 5g)
# Description: In total, 20,000 cells/ml of U87MG, HEK293T, hASTRO and 4T1 were seeded onto glass cover slips in 24-well plates. The cells incubated at 37 °C in a 5% CO2 atmosphere overnight. Cells were washed with 1 ml of PBS buffer two times, then a 10 μM solution of probes was added to each well for 2 h. For nuclei staining, 1 µg/ml of DAPI was added the last 15 min of treatment. The cover slips were removed and washed with PBS buffer, and fixed with 0.5 ml of 4% formaldehyde solution for 10 min. The cover slips were washed with 1 ml of PBS, then slides were prepared using Mounting Media (Merck Life Science). Fluorescence images were acquired using a Leica THUNDER Imager 3D Live Cell (Leica Microsystems, Wetzlar, Germany) microscope equipped with an S Fluor 40×/1.3 objective using the LAS X software.
# [1] = system: 4T1 murine mammary carcinoma; test: Cell viability (MTT assay); format: cell-based; settings: 10uM, 72 h
# Description: (§1) In total, 10 × 10^5 U87MG human glioblastoma, patient-derived glioma cells 3054 and 3060, HEK293T human embryonic kidney, 4T1 murine mammary carcinoma, human fetal astrocytes cell lines were plated in their respective medium and treated for 72 h with our fluorescent probe 10 and 11, solubilized in DMSO in a final concentration of […]. We treated controls with DMSO in the same final concentration and we compared the viability of each treatment to controls. The viability of cells was measured using the 3-(4,5-dimethylthiazol-2-yl)-2,5-diphenyltetrazolium assay (MTT assay)[23].
# [2] = Cell viability (MTT assay); format: cell-based, murine; settings: mouse, 4T1 mammary carcinoma cells
# Description: as §1
# [3] = system: patient-derived glioma cells 3060; test: Cell viability (MTT assay); format: cell-based, human; settings: 3060; 10uM, 72 h
# Description: as §1
# [4] = system: HEK293T human embryonic kidney; test: Cell viability (MTT assay); format: cell-based; settings: 10uM, 72 h
# Description: as §1
# [5] = Cell viability (MTT assay); format: cell-based, human; settings: human
# Description: as §1
# [6] = system: patient-derived glioma cells 3054; test: Cell viability (MTT assay); format: cell-based, human; settings: 3054; 10uM, 72 h
# Description: as §1
# U87MG human glioblastoma = test: Cell viability (MTT assay); format: cell-based; settings: 10uM, 72 h
# Description: as §1
# human fetal astrocytes = test: Cell viability (MTT assay); format: cell-based; settings: hASTRO; 10uM, 72 h
# Description: as §1
# [7] = LC-HRMS analysis, enzymatic assay buffer + probe without enzyme; settings: 1 h
# Description: These analyses were carried out by using UPLC-HRMS procedure with Vanquish UPLC system coupled to a Thermo Scientific Q-Exactive Plus, operating in negative electrospray ionization mode. The chromatographic separation was carried out using a Phenomenex Synergi 4 µ Polar-RP 80 A (150 × 2 mm) equipped with a Phenomenex Polar-RP (4 mm × 2 mm) security guard column. The mobile phase consisted of A: acetonitrile 0.1% formic acid and B: 0.1% formic acid. We used a linear elution gradient, starting from 80% of A to 5% A in 3 min, 3 min at 5% A, an equilibration of 4 min for a total run time of 10.00 min, at 300 µl/min flow rate. The autosampler temperature was set at 15 °C, the injection volume was 5 µl and column was maintained at 40 °C. […] Before injecting the samples, the blanks in the list were analyzed and every biological sample was analyzed in duplicate. The biological samples analyzed were as follow: (1) Enzymatic assay Buffer; (2) Enzymatic assay Buffer + NAD^+; (3) Enzymatic assay Buffer + Probe 10 or Probe 11; (4) Enzymatic assay Buffer + ALDH1A1; (5) Enzymatic assay Buffer + ALDH1A2; (6) Enzymatic assay Buffer + ALDH1A3; (7) Enzymatic assay Buffer + ALDH1A1 + Probe 10 or Probe 11; (8) Enzymatic assay Buffer + ALDH1A2 + Probe 10 or Probe 11; (9) Enzymatic assay Buffer + ALDH1A3 + Probe 10 or Probe 11. […]
# [8] = system: patient-derived glioma cell 3060; test: Fluorescent microscopy of probe in cells; format: cell-based, human; settings: 10 µM
smiles,measurement,setting,value
COc1cc(/C=C/C(O)=C/C(=O)/C=C/c2ccc(OCc3cn(CCOc4ccc(C=O)cc4)nn3)c(OC)c2)ccc1O [Probe 10],If ROI,HEK293T cells,64.441 a.u. and 43.961 a.u. and 59.771 a.u. and 72.091 a.u. and 46.461 a.u.
same,% cell viability,[1],86.9788% and 85.5694% and 83.5736% and 83.6921% and 86.8788% and 85.6693% and 83.8736%
same,"viability at 72 h, 10 µM",[2],83.6%
same,% cell viability,[3],90.8745% and 90.3258% and 91.3365% and 91.3478% and 90.9745% and 90.4258% and 91.2365%
same,% cell viability,[4],84.6125% and 86.4467% and 91.2307% and 96.8963% and 84.5125% and 86.3467% and 91.1307%
same,"viability at 72 h, 10 µM",[5]; HEK293T embryonic kidney cells,96.8%
same,"viability at 72 h, 10 µM",[5]; U87MG glioblastoma cells,86.8%
same,"viability at 72 h, 10 µM","[5]; human fetal astrocytes, hASTRO",85.3%
same,"viability at 72 h, 10 µM","[5]; patient-derived glioma cells 3054, 3054",91.4%
same,"viability at 72 h, 10 µM","[5]; patient-derived glioma cells 3060, 3060",91.2%
same,% cell viability,[6],92.2458% and 92.6485% and 92.3652% and 91.8745% and 92.3458% and 92.5485% and 92.2652%
same,% cell viability,U87MG human glioblastoma,87.4968% and 85.4873% and 86.3577% and 86.8785% and 87.5968% and 85.3873% and 86.4577%
same,% cell viability,human fetal astrocytes,80.9182% and 84.1614% and 88.5188% and 85.4535% and 80.8182% and 84.0614% and 88.4188%
same,AREA TIC of Probe 10,[7],9480149 and 10113371 and 16727419 and 14473716
same,fluorescence in cells,[8]; 2 h,can determine fluorescence
same,If ROI,"[8]; 3060, 2 h (Fig. 5g)",254.68 a.u. and 232.45 a.u. and 200.36 a.u. and 210.52 a.u. and 200.45 a.u.
